The values that follow come from ChEMBL document CHEMBL1201862, “PubChem BioAssay data set” (2004).

Holding throughout (assay): NCI anticancer screen, dose series, 48 h
Assay [1] deals with SK-OV-3.
Assay [2] concerns A549.
In assay [3] the test system is SK-MEL-28.
Assay [4] concerns HT-29.
The test system of assay [5] is NCI-H522.
Assay [6] relates to RXF 393.
Assay [7] has as its system HL-60.
Assay [8] concerns UACC-257.
Assay [9] relates to HCC 2998.
Assay [10] has as its system KM12.
Assay [11] concerns COLO 205.
Assay [12] has as its system HCT-15.
Assay [13] relates to NCI-H226.
The test system of assay [14] is SK-MEL-5.
Assay [15] relates to SR.
Assay [16] concerns OVCAR-4.
Assay [17] concerns M14.

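Tested at 5 concentrations; 48 h exposure; 96-well plates; endpoints linearly interpolated, else capped at highest concentration. The concentration for 50% growth inhibition is given as GI50.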 Active and inactive are the calls of the source. Rule as the data show it: active = GI50 up to about 1.1 µM and inactive = higher.

For the molecule `Cc1ccc(/C=C/C(=O)c2sc(-n3nc(-c4ccccc4)cc3-c3ccccc3)nc2C)cc1`, the GI50 in assay [1] is > 100 µM (inactive); in assay [2], > 100 µM (inactive); in [3], > 100 µM (inactive); in assay [4], 55 µM (inactive); in assay [5], 87.5 µM (inactive); in [6], > 100 µM (inactive). The GI50 in assay [7] was 36.4 µM (inactive); in [8], > 100 µM (inactive); in [9], 60.8 µM (inactive); in assay [10], > 100 µM (inactive); in assay [11], > 100 µM (inactive); in assay [12], 57.7 µM. Moreover, the GI50 was > 100 µM (inactive) in assay [13] and 71.1 µM (inactive) in assay [14].
For the molecule `Cc1ccc(OCC(=O)N2N=C(c3ccccc3)CC2(O)c2ccccc2)cc1` (stereo unspecified), the GI50 is > 100 µM (inactive) in assay [1]; 20.5 µM (inactive) in assay [2]; 80 µM (inactive) in [3]; > 10 µM (inactive) in assay [4]; > 100 µM (inactive) in [5]; 9.44 µM (inactive) in [15]. For the same molecule, the GI50 in assay [16] was 18.5 µM (inactive); in assay [7] it was 27.8 µM (inactive); in [8] it was > 100 µM (inactive); in assay [9], > 100 µM (inactive); in [10], 99.5 µM (inactive); in assay [11] it was 28.2 µM (inactive). The values for the GI50 in assay [17], in [12] and in assay [13] were 34.4 µM (inactive), more than 100 µM and 25.9 µM (inactive), respectively.
In the case of `O=C(NCCOC(=O)CCCCCCCCC(=O)OCCNC(=O)NC(=O)c1cn(Cc2ccccc2)c(=O)[nH]c1=O)NC(=O)c1cn(Cc2ccccc2)c(=O)[nH]c1=O`, the GI50 in assay [1], in [2], in assay [3], in assay [4], in [5] and in assay [15] was > 100 µM (inactive) in each case. For the same molecule, the GI50 in assay [16], in assay [7], in assay [8], in assay [9], in assay [10] and in assay [11] was > 100 µM (inactive) in each case. Moreover, the GI50 is > 100 µM (inactive) in assay [17], more than 100 µM in [12], > 100 µM (inactive) in assay [13] and > 100 µM (inactive) in assay [14].
Consider `Nc1nc(=O)n(C2CC(O)C(O)C(CO)O2)cc1F` (stereo unspecified), for which the GI50 in assay [2], in assay [3], in [4], in assay [5], in [6] and in assay [16] was > 100 µM (inactive) throughout. Moreover, the GI50 in assay [7] is > 100 µM (inactive); in [8], > 100 µM (inactive); in assay [9], > 100 µM (inactive); in [11], > 100 µM (inactive); in [17], > 100 µM (inactive); in [12] it was more than 100 µM. In addition, the GI50 in assay [13] was > 100 µM (inactive).
In the case of `COC(=O)c1ncc2c(=O)[nH]c3ccccc3c2c1C(=O)OC`, the GI50 in assay [2], in [3], in assay [4], in assay [6], in assay [15] and in assay [16] was > 100 µM (inactive) in each case. For the same molecule, the GI50 in assay [7] is > 100 µM (inactive); in assay [8] it was > 100 µM (inactive); in assay [9], > 100 µM (inactive); in assay [10], > 100 µM (inactive); in assay [17], > 100 µM (inactive); in assay [12] it was more than 100 µM. Moreover, the GI50 in [13] and in assay [14] was > 100 µM (inactive) each time.
Regarding `CCOC(=O)NC(=O)c1cn(CCCOC(=O)CCCCCCCCC(=O)OCCCn2cc(C(=O)NC(=O)OCC)c(=O)[nH]c2=O)c(=O)[nH]c1=O`, the GI50 in assay [1] is 40.5 µM (inactive); in [2], 55.6 µM (inactive); in assay [3] it was 16.4 µM (inactive); in assay [4], 34.8 µM (inactive); in assay [6], > 10 µM (inactive); in assay [16], 4.41 µM (inactive). For the same molecule, the GI50 in assay [7] is 5.14 µM (inactive); in assay [8], 16.9 µM (inactive); in [9] it was 10.3 µM (inactive); in [11], 18.2 µM (inactive); in assay [17], 21.5 µM (inactive); in [12] it was 19.5 µM. Also, the GI50 in assay [14] was 21.9 µM (inactive).
Turning to `O=C(O)c1ccccc1C1c2ccc(Cl)cc2Oc2cc(Cl)ccc21`, the GI50 in assay [1], in [2], in assay [3], in assay [4], in assay [5] and in assay [6] was > 100 µM (inactive) throughout. Further, the GI50 in [16], in [7], in assay [8], in [9], in assay [10] and in [11] was > 100 µM (inactive) throughout. Besides, the GI50 in assay [17] was > 100 µM (inactive); in [12] it was more than 100 µM; in [14], > 100 µM (inactive).
Take `CCOP1(=O)C=C(C)C(=C(Cl)Cl)C(C)=C1` (stereo unspecified): the GI50 was 35.1 µM (inactive) in assay [1]; 8.28 µM (inactive) in assay [2]; 22.5 µM (inactive) in assay [3]; 4.72 µM (inactive) in [4]; 3.58 µM (inactive) in [5]; 15.6 µM (inactive) in assay [6]. Further, the GI50 is 15.2 µM (inactive) in assay [16]; 3.33 µM (inactive) in [7]; 3.54 µM (inactive) in assay [8]; 14.6 µM (inactive) in [9]; 1.71 µM (inactive) in [10]; 11.7 µM (inactive) in assay [11]. The GI50 is 8.32 µM (inactive) in assay [17], 8.79 µM in assay [12], 2.39 µM (inactive) in [13] and 5.9 µM (inactive) in assay [14].
As to `CC(=O)Nc1ccc(-c2nnc(SCC(=O)Nc3cccc(C)c3)o2)cc1`, the GI50 is 25.8 µM (inactive) in assay [1]; 21.3 µM (inactive) in [2]; 13.8 µM (inactive) in [3]; 12.2 µM (inactive) in assay [4]; 4.4 µM (inactive) in assay [5]; 12.8 µM (inactive) in [6]. In addition, the GI50 in [15] was 4.93 µM (inactive); in assay [16], 16 µM (inactive); in [7], 19.5 µM (inactive); in assay [8], 12.3 µM (inactive); in [10] it was 10.8 µM (inactive); in assay [11], 14.8 µM (inactive). Moreover, the GI50 is 13 µM (inactive) in [17], 8.97 µM in assay [12], 14.4 µM (inactive) in [13] and 11.1 µM (inactive) in assay [14].
With `CCOC(=O)C1S(=O)(=O)OCCOS1(=O)=O`, the GI50 in [1], in assay [2], in [3], in assay [4], in assay [5] and in assay [15] was > 100 µM (inactive) throughout. Besides, the GI50 in assay [16], in assay [7], in [8], in assay [9], in assay [10] and in assay [11] was > 100 µM (inactive) in each case. For the same molecule, the GI50 in assay [17] and in assay [14] was > 100 µM (inactive) each time.
Consider `CC(C)CCCC(C)[C@H]1CCC2[C@@H]3CCC4Nc5c(cnn5-c5ccccc5)C[C@]4(C)C3CC[C@@]21C` (stereo partly specified), for which the GI50 in assay [1] is 48.5 µM (inactive); in assay [2], 52.2 µM (inactive); in assay [4], 10.6 µM (inactive); in [5], 43.1 µM (inactive); in assay [6], 2.78 µM (inactive); in assay [16] it was 25.6 µM (inactive). The GI50 in assay [7] is 4.67 µM (inactive); in assay [8], 44.5 µM (inactive); in assay [9], 15.8 µM (inactive); in assay [10] it was 29.6 µM (inactive); in assay [11], 8.75 µM (inactive); in [17], 39.8 µM (inactive). Further, the GI50 in assay [12] was 23.3 µM; in [13] it was 17.9 µM (inactive); in [14] it was 85.1 µM (inactive).
As to `COc1cccc(/C=C\c2cc(OC)c(OC)c(OC)c2)c1`, the GI50 in assay [1] is 4.38 µM (inactive); in assay [2], 0.668 µM (active); in assay [3], 0.507 µM (active); in assay [4] it was 0.423 µM (active); in assay [5], 0.375 µM (active); in [15] it was 0.498 µM (active). Also, the GI50 in [16] was 14.4 µM (inactive); in assay [8] it was 0.505 µM (active); in assay [9], 3.94 µM (inactive); in assay [10], 0.543 µM (active); in assay [11], 0.807 µM (active); in assay [17] it was 0.604 µM (active). Besides, the results for the GI50 in [12] and in [13] were 0.693 µM and 0.745 µM (active), respectively.
As for `Cc1cc(C)c(C(=O)/C=C/c2ccccc2)c(C)c1`, the GI50 is 64.6 µM (inactive) in [1]; 30.2 µM (inactive) in assay [2]; > 10 µM (inactive) in assay [3]; 30.3 µM (inactive) in assay [4]; 19.1 µM (inactive) in [5]; 15.8 µM (inactive) in assay [6]. The GI50 in assay [15] was 30.5 µM (inactive); in assay [16], 22.8 µM (inactive); in assay [7], 25.9 µM (inactive); in assay [8] it was 33.8 µM (inactive); in [10], 35.2 µM (inactive); in [11] it was 29 µM (inactive). Besides, the GI50 in [17] is 19.4 µM (inactive); in assay [12], 16.5 µM; in assay [13], 22.8 µM (inactive); in assay [14], > 100 µM (inactive).
